# Experimental data from US20080076772A1, “Anti-Inflammatory Agents” (Pharma Mar S.A. Sociedad Unipersonal, priority 2004, published 2008).
# What was measured:
# [1] = tested on: CCL2; assay: CCL2 production by LPS-stimulated monocytes (ELISA); assay type: cell-based, human; conditions: 24 h-incubation
# Experimental: Supernatants of untreated cells or cells treated with ecteinascidin 743 or other anti-neoplastic agents were collected after 24 h culture and frozen. Monocytes, macrophages and TAM were stimulated with 100 ng/ml LPS to induce maximal cytokine production. Determination of cytokines CCL2, TNF and IL-6 was measured by specific ELISA following the manufacturer's instructions.
# Monocytes and in vitro differentiated macrophages were stimulated with LPS (100 ng/ml). After 1 h LPS stimulation they were treated with ecteinascidin 743. After 16 h incubation, cell supernatants were harvested and tested in ELISA. Under these treatment conditions cell viability was usually >85% for concentrations up to 5 nM. […] Mean inhibition at 5 nM, for monocytes, was 65% (range 50-80%, n=5) and was 50% (range 25-75%, n=5) for in vitro differentiated macrophages. Results are mean+/−SE of 3-5 experiments
# Similar results were obtained when monocytes were stimulated with LPS (100 ng/ ml) and treated with ET743 and the other ecteinascidin compounds, although the overall inhibition was less marked compared with the previous experiment where the tumor supernantant was used as CCL2-inducing stimulus.
# CCL2 and TNF production by LPS-stimulated monocytes treated with the indicated doses of the anti-tumor agents was also tested. Cell supernatants were harvested after 24 h-incubation and tested in ELISA. […] None of these compounds interfered with the production of TNF.
# A major finding of our work is the inhibitory activity of ecteinascidin 743 on the production of inflammatory cytokines. Among various inflammatory cytokines produced by monocyte/macrophages we have tested IL-6, TNF and the chemokine CCL2. CCL2 is a chemokine attracting monocytes and other leukocyte subsets, and is produced both by monocyte/macrophages and several tumour cells. It has been described that ovarian adenocarcinoma cells produce huge amounts of CCL2 and that their levels correlate with the macrophage content of tumours. CCL2 is therefore one of the most important factors regulating monocyte/macrophages recruitment at the tumour site. […] Thus, lower levels of CCL2 by TAM and tumour cells are likely to reduce the number of macrophages recruited at the tumour site. In the above described in vitro experiments ecteinascidin 743 was present throughout the 16-h culture period. We also checked whether a shorter in vitro exposure to ecteinascidin 743 was sufficient to affect cytokine production. Monocytes exposed to ecteinascidin 743 were washed after 1 hour culture and replaced in fresh medium.
# [2] = tested on: blood monocytes; assay: in vitro; conditions: 48 h
# Experimental: Purified populations of human blood monocytes were prepared as previously described by differential density centrifugation on Ficoll and Percoll gradients (see Allavena, P., Piemonti, L., Longoni, D., Bernasconi, S., Stoppacciaro, A., Ruco, L., and Mantovani, A. IL-10 prevents the differentiation of monocytes to dendritic cells but promotes their maturation to macrophages. Eur J Immunol, 28: 359-369, 1998). […] Human thymocytes were isolated from resected thymus from pediatric patients undergoing surgery. Thymocytes were obtained by teasing and isolated on Percoll gradient.
# Cells were cultured at 10^6 cells/ml in complete medium RPMI (Biochrom, Berlin, FRG)+10% FCS (Hyclone, Logan, Utah). In vitro differentiated macrophages were obtained by culture of monocytes Monocyte-Colony Stimulating Factor (M-CSF) Peprotech (20 ng/ml), for 5 days. In some experiments, macrophages were treated with LPS (100 ng/ml) Sigma Aldrich, IFN gamma (500 IU/ml) or IL-4 (20 ng/ml) (Schering Plough) for 24 h.
# Cell viability was analyzed by DNA content in Flow Cytometry
# Cells exposed to treatments were fixed with ethanol 70%, washed in PBS and stained with propidium iodide (PI) solution containing 10 ug/ml PI in PBS and 25 μl RNAse 10,000 units, overnight in the dark. PI incorporation was evaluated on at least 20,000 cells/sample using a FACS Calibur instrument (Becton Dickinson, Sunnyvale, Calif., USA), with a bandpass filter at 620 nm. Apoptosis was detected by staining with AnnexinV and PI. FACS analysis was performed using a bandpass filter 530 and 620 nm for green (AnnexinV) and red (PI) fluorescence respectively, in combination with a […] dichroic mirror.
# Purified preparations of blood monocytes, lymphocytes and thymocytes were cultured with different concentrations of ecteinascidin 743 for 48 h. Cell viability was assessed by DNA analysis and propidium iodide (PI) staining in Flow cytometry.
# A kinetics analysis of the cytotoxic effect of ecteinascidin 743 was performed in the presence of M-CSF. Cells were treated with M-CSF (20 ng/ml) and different concentrations of ecteinascidin 743. Samples were collected at the indicated times and tested for DNA analysis.
# Viability was assessed by PI staining and analyzed by Flow Cytometry.
# [3] = tested on: CCL2; assay: CCL2 production induced by exposure of monocytes to tumor cell supernatants; assay type: cell-based, human
# Experimental: We also tested five other ecteinascidin compounds (Table 2) for their capacity to inhibit the production of CCL2 by human monocytes in vitro. […] The extent of inhibition of ET637 Derivative A was even more pronouced compared to ET743. In Table 2 is shown that the production of CCL2, induced by exposure of monocytes to tumor cell supernatants, is inhibited up to 80% and 97% at 2.5 and 5 nM, respectively, in two different donors. In the same experiment ET743 inhibited between 30% and 70%.
structure (smiles),measurement,setting,value
"N.N.[Cl][Pt][Cl] [Cisplatin, reference compound]",effect on CCL2 production by LPS-stimulated monocytes,[1]; 10 μM,reduced CCL2 production
same,toxicity on monocytes,[2]; very high concentrations (40 μM),Significant toxicity
"COc1cccc2c1C(=O)c1c(O)c3c(c(O)c1C2=O)C[C@@](O)(C(=O)CO)C[C@@H]3O[C@H]1C[C@H](N)[C@H](O)[C@H](C)O1 [Doxorubicin, reference compound]",effect on CCL2 production by LPS-stimulated monocytes,[1]; indicated doses (FIG. 9B),ineffective
COc1c(C)cc2c(c1O)C1C3[C@@H]4SCC(=O)C(=O)OC[C@@H](c5c6c(c(C)c(OC(C)=O)c54)OCO6)N3[C@@H](O)[C@H](C2)N1C (some centres unmarked) [ET594],"% inhibition of CCL2 production, Donor A",[3]; 5 nM,25%
same,"% inhibition of CCL2 production, Donor A",[3]; 10 nM,25%
COc1cc2c(cc1O)CCN[C@]21CS[C@@H]2c3c(OC(C)=O)c(C)c4c(c3[C@H](COC1=O)N1C[C@@H]3Cc5cc(C)c(OC)c(O)c5[C@H]([C@H]21)N3C)OCO4 [ET745],inhibition at 0.005 µM,"[3]; Homo sapiens, Monocyte, read-out: % inhibition of CCL2 production, Donor A",23%
"CC(=O)O[C@H]1C(=O)[C@@]2(C)[C@H]([C@H](OC(=O)c3ccccc3)[C@]3(O)C[C@H](OC(=O)[C@H](O)[C@@H](NC(=O)c4ccccc4)c4ccccc4)C(C)=C1C3(C)C)[C@]1(OC(C)=O)CO[C@@H]1C[C@@H]2O [Taxol, reference compound]",effect on CCL2 production by LPS-stimulated monocytes,[1]; indicated doses (FIG. 9B),ineffective
same,toxicity on monocytes,[2]; 300 nM,ineffective
